Data published in patent publication US20250152719A1, “FUSED IMIDE DERIVATIVE” (Chia Tai Tianqing Pharmaceutical Group Co., Ltd., priority 2021, published 2025).

Legend:
BTK(C481S) kinase = BTK(C481S) kinase (Homo sapiens (Human), UniProt Q06187, C481S); experiment: Inhibitory activity on BTK(C481S) kinase; type: biochemical; conditions: ATP 10 μM
Experimental: The Assay Buffer was prepared, and the composition of the Assay Buffer was 50 mM Hepes (Gibco, 15630), 10 mM MgCl2, 2 mM DTT, 1 mM EGTA, and 0.010% Tween 20. BTK(C481S) kinase (Carna Biosciences, 08-547), ATP (Sigma, A7699), and ULight-poly GT (PE, TRF0100-M) working solutions were prepared using the Assay Buffer. EDTA and Eu-labeled anti-phosphotyrosine (PT66) antibody (PE, AD0069) working solutions were prepared using the Detection Buffer. 6 μL of BTK(C481S) kinase at the corresponding concentration (final concentration: 0.005 ng/μL) was added to the compound groups and the control group, while 6 μL of the Assay Buffer was added to the blank group, and then the compounds (with the concentration set to 1000 nM at the maximum, 4-fold dilution, 7 concentration gradients) were added using a nanoliter pipettor. The mixture was incubated at room temperature for 30 min, and then 4 μL of the mixture of ATP (final concentration: 10 μM) and ULight-poly GT (final concentration: 100 nM) was added. After incubation at room temperature for 2 h, 5 μL of EDTA (final concentration: 10 mM) was added to stop the reaction, and finally 5 μL of antibody (final concentration: 2 nM) was added. After incubation at room temperature for 1 h, signal values were detected at 665/615 nM, the four-parameter analysis was performed, the dose-response curves were fit, and IC50 was calculated.

EGFR kinase = EGFR kinase (Homo sapiens (Human), UniProt P00533); experiment: Inhibitory activity on EGFR kinase; type: biochemical; conditions: ATP 5 μM
Experimental: The Assay Buffer was prepared, and the composition of the Assay Buffer was 50 mM Hepes (Gibco, 15630), 10 mM MgCl2, 2 mM DTT, 1 mM EGTA, and 0.010% Tween 20. EGFR kinase (Carna, 08-115), ATP (Sigma, A7699), and ULight-poly GT (PE, TRF0100-M) working solutions were prepared using the Assay Buffer. EDTA and Eu-labeled anti-phosphotyrosine (PT66) antibody (PE, AD0069) working solutions were prepared using the Detection Buffer. 6 μL of EGFR kinase at the corresponding concentration (final concentration: 0.006 ng/μL) was added to the compound groups and the control group, while 6 μL of the Assay Buffer was added to the blank group, and then the compounds (with the concentration set to 1000 nM at the maximum, 4-fold dilution, 7 concentration gradients) were added using a nanoliter pipettor. The mixture was incubated at room temperature for 30 min, and then 4 μL of the mixture of ATP (final concentration: 5 μM) and ULight-poly GT (final concentration: 100 nM) was added. After incubation at room temperature for 2 h, 5 μL of EDTA (final concentration: 10 mM) was added to stop the reaction, and finally 5 μL of antibody (final concentration: 2 nM) was added. After incubation at room temperature for 1 h, signal values were detected at 665/615 nM, the four-parameter analysis was performed, the dose-response curves were fit, and IC50 was calculated.

BTK(WT) kinase = BTK(WT) kinase (Homo sapiens (Human), UniProt Q06187); experiment: Inhibitory activity on BTK(WT) kinase; type: biochemical; conditions: ATP 10 μM
Experimental: The Assay Buffer was prepared, and the composition of the Assay Buffer was 50 mM Hepes (Gibco, 15630), 10 mM MgCl2, 2 mM DTT, 1 mM EGTA, and 0.010% Tween 20. BTK(WT) kinase (Life, PR5442A), ATP (Sigma, A7699), and ULight-poly GT (PE, TRF0100-M) working solutions were prepared using the Assay Buffer. EDTA and Eu-labeled anti-phosphotyrosine (PT66) antibody (PE, AD0069) working solutions were prepared using the Detection Buffer (PE, CR97-100). 6 μL of BTK(WT) kinase at the corresponding concentration (final concentration: 0.003 ng/L) was added to the compound groups and the control group, while 6 μL of the Assay Buffer was added to the blank group, and then the compounds (with the concentration set to 1000 nM at the maximum, 4-fold dilution, 7 concentration gradients) were each added using a nanoliter pipettor. The mixture was incubated at room temperature for 30 min, and then 4 μL of the mixture of ATP (final concentration: 10 μM) and ULight-poly GT (final concentration: 100 nM) was added. After incubation at room temperature for 2 h, 5 μL of EDTA (final concentration: 10 mM) was added to stop the reaction, and finally 5 μL of antibody (final concentration: 2 nM) was added. After incubation at room temperature for 1 h, signal values were detected at 665/615 nM, the four-parameter analysis was performed, the dose-response curves were fit, and IC50 was calculated.

BTK = BTK (Homo sapiens (Human), UniProt Q06187); experiment: BTK degradation in OCI-LY10 cells (Total-BTK HTRF kit); type: cell-based; conditions: OCI-Ly10, OCI-LY10 cells, 24 (or 6) h incubation; maximum degradation rate
Outline: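 OCI-LY10 cells seeded overnight, then treated with compound at 100 nM-0.098 nM in duplicate for 24 (or 6) h. Lysates probed by Total-BTK HTRF (d2/Eu cryptate antibodies, overnight, room temperature), read at 665/620 nm; DC50 and Dmax from four-parameter dose-response fits.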

[1] = In vitro liver microsomal stability, mouse; conditions: 0.5 mg/mL microsomes, NADPH, 37° C., 1 h
Experimental: Liver microsome incubation samples were prepared by mixing a PBS buffer (pH 7.4), a liver microsome solution (0.5 mg/mL), a test compound, and an NADPH+MgCl2 solution and incubated at 37° C. and 300 rpm for 1 h. Zero-hour samples were prepared by mixing a PBS buffer (pH 7.4), a liver microsome solution (0.5 mg/mL), and a test compound. An acetonitrile solution containing an internal standard was added to the samples, and supernatants were prepared by protein precipitation, diluted, and then assayed by LC/MS/MS.

TMD8-BTK(C481S) cells = experiment: Inhibitory activity on TMD8-BTK(C481S) cell proliferation (CCK-8); type: cell-based; conditions: 72 h, 72 h incubation
Outline: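 Cells seeded at 8×10^4 cells/mL, incubated overnight, then treated in duplicate with compounds at 5000 nM-0.31 nM for 72 h. Viability by CCK-8 (4 h, absorbance 450 nm); IC50 from four-parameter dose-response fits.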

BTK(C481S) kinase, sequence (Q06187 whole entry C481S): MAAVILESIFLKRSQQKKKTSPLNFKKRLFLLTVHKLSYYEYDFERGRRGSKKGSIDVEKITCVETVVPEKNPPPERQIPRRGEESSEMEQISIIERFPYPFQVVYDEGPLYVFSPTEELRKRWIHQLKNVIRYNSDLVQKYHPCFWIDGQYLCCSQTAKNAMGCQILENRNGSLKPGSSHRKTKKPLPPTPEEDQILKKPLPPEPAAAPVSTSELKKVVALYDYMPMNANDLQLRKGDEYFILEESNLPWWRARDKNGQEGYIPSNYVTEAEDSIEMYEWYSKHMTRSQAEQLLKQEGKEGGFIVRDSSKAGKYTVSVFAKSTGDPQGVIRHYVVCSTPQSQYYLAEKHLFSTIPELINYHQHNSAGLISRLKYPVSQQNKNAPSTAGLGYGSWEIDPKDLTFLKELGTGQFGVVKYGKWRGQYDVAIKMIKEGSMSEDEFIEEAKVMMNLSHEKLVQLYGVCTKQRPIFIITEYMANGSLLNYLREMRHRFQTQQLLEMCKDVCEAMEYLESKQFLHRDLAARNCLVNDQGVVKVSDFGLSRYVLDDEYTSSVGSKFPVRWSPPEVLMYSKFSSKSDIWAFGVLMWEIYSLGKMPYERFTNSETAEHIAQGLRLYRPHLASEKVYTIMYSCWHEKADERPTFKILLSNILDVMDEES
BTK, sequence (Q06187 whole entry): as the sequence (Q06187 whole entry C481S) above, with S481C counted along it
BTK(WT) kinase, sequence (Q06187 whole entry): as the sequence (Q06187 whole entry C481S) above, with S481C counted along it
EGFR kinase, sequence (P00533 669-1210): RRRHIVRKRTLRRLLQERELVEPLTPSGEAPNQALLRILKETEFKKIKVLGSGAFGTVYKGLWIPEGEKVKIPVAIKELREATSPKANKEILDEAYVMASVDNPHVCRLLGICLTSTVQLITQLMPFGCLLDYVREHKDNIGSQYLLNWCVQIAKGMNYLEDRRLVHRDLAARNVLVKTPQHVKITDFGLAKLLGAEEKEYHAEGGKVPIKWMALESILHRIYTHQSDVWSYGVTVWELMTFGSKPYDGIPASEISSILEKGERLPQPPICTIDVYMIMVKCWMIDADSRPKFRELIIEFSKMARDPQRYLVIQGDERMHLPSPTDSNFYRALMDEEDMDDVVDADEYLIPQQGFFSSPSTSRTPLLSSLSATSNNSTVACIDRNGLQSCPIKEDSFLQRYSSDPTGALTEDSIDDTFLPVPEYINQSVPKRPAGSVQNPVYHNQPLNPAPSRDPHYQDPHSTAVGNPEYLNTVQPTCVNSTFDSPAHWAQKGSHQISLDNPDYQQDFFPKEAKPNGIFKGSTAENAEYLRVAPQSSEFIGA

SMILES | IC50 (BTK(C481S) kinase) [nM] | IC50 (EGFR kinase) [nM] | IC50 (BTK(WT) kinase) [nM] | Dmax (BTK) [%] | Mouse liver microsome Residuals at 60 min [1] [%] | IC50 (TMD8-BTK(C481S) cells) [nM]
CN1CCN([C@@H]2CCCN(c3cnc(C(N)=O)c(Nc4ccc(C5CCC6(CC5)CCN(CC5Cc7ccc8c(C9CCC(=O)NC9=O)noc8c7C5)CC6)cc4)n3)C2)C1=O (stereo partly drawn) [Compound 50] | 0.81 | 69 | 0.42 | > 90 | 63.1 | 4
CN1CCN([C@@H]2CCCN(c3cnc(C(N)=O)c(Nc4ccc(C5CCC6(CC5)CC(N5CCc7ccc8c(C9CCC(=O)NC9=O)noc8c7CC5)C6)cc4)n3)C2)C1=O (stereo partly drawn) [Compound 59] | 9.1 | 279 | 5.4 | > 90 | 47.0 | 12
